Series [1] can be described thus: LC retention time (Atlantis T3, 5-95% MeOH gradient, 0.1% formic acid); higher = more retained / less polar. A digest of the protocol:
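Retention times were recorded for reference standards (purity ≥ 95%) on a polar reversed-phase C18 column (Atlantis T3, 3 × 150 mm, 3 μm) at 0.3 mL/min. Elution used water and methanol, each with 0.1% formic acid, in a gradient from 5 to 95% methanol over 17.5 min. Detection was by high-resolution tandem mass spectrometry on a QExactive Plus, with positive and negative electrospray in separate runs. Peaks were found and integrated in TraceFinder (5 ppm tolerance, at least three points per peak) and then checked by hand.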

A short description of series [2]: absolute recovery over mixed-bed multilayer solid-phase extraction; higher = better recovery. As to conditions: enrichment method: SPE. In a few lines: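 Absolute recovery rests on background-corrected response ratios of pre- versus post-spiked samples, averaged over at least two replicates. Wastewater (100–250 mL, pH 6.5, glass-fibre filtered) was spiked at 1000 ng/L and unfiltered nanopure water (1000 mL) at 200 ng/L, before or after three-layer mixed-bed cartridge extraction or not at all, with exceptions for some classes. Analysis after internal standard addition used liquid chromatography with high-resolution tandem mass spectrometry in both ionisation modes.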

A short description of series [3]: absolute recovery over vacuum-assisted evaporative concentration; higher = better recovery. To be noted: enrichment method: VEC. In a few lines: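 Samples of influent (6 mL), effluent (15 mL) and surface or nanopure water (60 mL) were spiked with standards before or after concentration, or left unspiked, at 200 ng/L (nanopure/surface) or 1000 ng/L (wastewater), adjusted by class and compound. Concentration was by evaporation at 55 °C and 20 mbar to about 0.3 mL, followed by adjustment to 0.4 mL and centrifugation. Internal standards were then added for LC-HRMS/MS analysis. Absolute recovery was (response ratio pre − unspiked)/(post − unspiked) × 100, using averages of ≥ 2 replicates.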

SMILES strings stand for the structures.

The compound `N#Cc1c(Cl)c(Cl)c([O-])c(C(=[NH2+])[O-])c1Cl` displayed an LC retention time in series [1] of 16.8 min. Moreover, the absolute recovery is 101% in series [2] (nanopure water); 99.6% in series [2] (surface water); 94.8% in series [2] (wastewater effluent); 109% in series [3] (wastewater effluent); 105% in series [3] (wastewater influent).

As to `CC(C)CC(C[NH3+])CC(=O)[O-]` (racemic) [Pregabalin-rac], the LC retention time in series [1] was determined as 10.3 min. Further, the absolute recovery turned out to be 16.3% in series [2] (nanopure water); 2% in series [2] (surface water); 2.6% in series [2] (wastewater effluent); 108% in series [3] (wastewater effluent); 101% in series [3] (wastewater influent).

On to `CN1CCN(C)C1=O` [1-3-Dimethyl-2-imidazolidinon], for which the LC retention time in series [1] stood at 10.1 min. Also, the absolute recovery in series [2] (nanopure water) stood at 26%; in series [2] (surface water), 29.7%; in series [2] (wastewater effluent), 29.2%; in series [2] (wastewater influent), 56.1%; in series [3] (wastewater effluent), 96.5%; in series [3] (wastewater influent) it was 104%.

In series [1], `Clc1cccc(N2CC[NH2+]CC2)c1` [1-(3-Chlorophenyl)-piperazine] registered an LC retention time of 12.6 min. Further, the absolute recovery in series [2] (nanopure water) turned out to be 70.3%; in series [2] (surface water) it was 74.7%; in series [2] (wastewater effluent), 68.1%; in series [2] (wastewater influent), 79.3%; in series [3] (wastewater effluent), 103%; in series [3] (wastewater influent) it was 99.6%.

Regarding `FC(F)(F)c1cccc(N2CC[NH2+]CC2)c1` [1-(3-Trifluoromethylphenyl)-piperazine], the LC retention time in series [1] came out at 13.6 min. The absolute recovery in series [2] (nanopure water) stood at 66%; in series [2] (surface water), 71.9%; in series [2] (wastewater effluent), 66.4%; in series [2] (wastewater influent), 69.9%; in series [3] (wastewater effluent), 97.4%; in series [3] (wastewater influent), 93%.

The compound `c1ccc(CN2CC[NH2+]CC2)cc1` [1-Benzylpiperazin] came in with an LC retention time in series [1] of 6.45 min. The absolute recovery in series [2] (nanopure water) was 58.2%; in series [2] (surface water) it was 60.9%; in series [2] (wastewater effluent), 56.2%; in series [2] (wastewater influent), 72.5%; in series [3] (wastewater effluent), 109%; in series [3] (wastewater influent), 140%.

Regarding `[O-]n1nnc2ccccc21` [1-Hydroxybenzotriazole H], the LC retention time in series [1] amounted to 11.6 min. Further, the absolute recovery in series [2] (nanopure water) came to 99.2%; in series [2] (surface water) it was 45.5%; in series [2] (wastewater effluent) it was 60.4%; in series [2] (wastewater influent), 67.3%; in series [3] (wastewater effluent), 126%; in series [3] (wastewater influent), 73%.

In series [1], `Cn1nnc2ccccc21` [1-Methyl-Benzotriazol] gave an LC retention time of 14 min. In addition, the absolute recovery in series [2] (nanopure water) is 89.4%; in series [2] (surface water), 93.1%; in series [2] (wastewater effluent) it was 88.8%; in series [2] (wastewater influent), 103%; in series [3] (wastewater effluent) it was 83.9%; in series [3] (wastewater influent), 82.1%.

Take `CCCS(=O)(=O)[O-]` [1-Propanesulfonate]: the LC retention time in series [1] turned out to be 6.6 min. For the same compound, the absolute recovery came to 4.8% in series [2] (nanopure water); 0.3% in series [2] (surface water); 0.9% in series [2] (wastewater effluent); 1.7% in series [2] (wastewater influent); 107% in series [3] (wastewater effluent); 102% in series [3] (wastewater influent).

Consider `Clc1ccc(C(c2ccccc2)N2CC[NH2+]CC2)cc1` (stereo not given) [1-[(4-Chlorophenyl)phenylmethyl]piperazine], for which, in series [1], the LC retention time was 16.2 min. The absolute recovery in series [2] (nanopure water) worked out at 82.7%; in series [2] (surface water), 84.1%; in series [2] (wastewater effluent), 85.4%; in series [2] (wastewater influent), 122%; in series [3] (wastewater effluent), 86.4%; in series [3] (wastewater influent), 116%.

Take `O=c1ccn(C2OC(CO)C(O)C2(F)F)c(=O)[nH]1` (stereo not given) [2-2-Difluorodeoxyuridin]: in series [1], the LC retention time is 9.37 min. In addition, the absolute recovery in series [2] (nanopure water) stood at 88.2%; in series [2] (wastewater effluent), 95.1%; in series [3] (wastewater effluent), 122%; in series [3] (wastewater influent) it was 88.2%.

As to `CC(=O)OC1C(C)OC(n2cc(F)c(N)nc2=O)C1OC(C)=O` (stereo not given) [2-3-di-O-acetyl-5-deoxy-5-fluorocytidin], the LC retention time in series [1] was 13.9 min. Also, the absolute recovery in series [2] (nanopure water) stood at 102%; in series [2] (surface water), 100%; in series [2] (wastewater effluent), 92.7%; in series [2] (wastewater influent) it was 84.6%; in series [3] (wastewater effluent), 101%; in series [3] (wastewater influent), 91.8%.

In series [1], `O=C([O-])COc1ccc(Cl)cc1Cl` [2-4-D] returned an LC retention time of 19.3 min. Also, the absolute recovery in series [2] (nanopure water) was found to be 95.6%; in series [2] (surface water), 94%; in series [2] (wastewater effluent) it was 93.5%; in series [2] (wastewater influent) it was 91.2%; in series [3] (wastewater effluent) it was 103%; in series [3] (wastewater influent) it was 106%.

`Cc1ccc(NC=O)c(C)c1` [2-4-dimethylphenylformamid]: the LC retention time in series [1] is 16.5 min. Moreover, the absolute recovery in series [2] (nanopure water) was found to be 107%; in series [2] (surface water) it was 101%; in series [2] (wastewater effluent), 99.8%; in series [2] (wastewater influent), 96.3%; in series [3] (wastewater effluent), 108%; in series [3] (wastewater influent), 132%.

Take `NC(=O)c1c(Cl)cccc1Cl` [2-6-Dichlorbenzamid]: the LC retention time in series [1] was 12.7 min. In addition, the absolute recovery in series [2] (nanopure water) turned out to be 93.7%; in series [2] (surface water), 94.9%; in series [2] (wastewater effluent), 93.8%; in series [2] (wastewater influent), 93.9%; in series [3] (wastewater effluent), 102%; in series [3] (wastewater influent), 107%.

`O=S(=O)([O-])c1ccc2ccc(S(=O)(=O)[O-])cc2c1` [2-7-Naphthalenedisulfonic-acid] showed an LC retention time in series [1] of 8.38 min. Further, the absolute recovery in series [2] (nanopure water) came to 93.9%; in series [2] (surface water), 77.6%; in series [2] (wastewater effluent), 77.2%; in series [2] (wastewater influent), 88.8%; in series [3] (wastewater effluent), 108%; in series [3] (wastewater influent), 112%.

`C[NH+](C)C(C)(C)CO` [2-(Dimethylamino)-2-methyl-1-propanol] showed an LC retention time in series [1] of 3.5 min. Further, the absolute recovery in series [2] (nanopure water) is 45.5%; in series [2] (surface water), 7.1%; in series [2] (wastewater effluent) it was 10.1%; in series [3] (wastewater effluent) it was 108%.

`COc1nc(C)nc(N)n1` [2-Amino-4-methoxy-6-methyl-1-3-5-triazin] yielded an LC retention time in series [1] of 9.03 min. Further, the absolute recovery in series [2] (nanopure water) stood at 102%; in series [2] (surface water) it was 112%; in series [2] (wastewater effluent) it was 102%; in series [2] (wastewater influent), 102%; in series [3] (wastewater effluent), 101%; in series [3] (wastewater influent) it was 106%.

The compound `CNC(=C[N+](=O)[O-])NCCSCc1ccc(C[NH+](C)C)o1` [Ranitidin] showed an LC retention time in series [1] of 8.64 min. Further, the absolute recovery in series [3] (wastewater effluent) turned out to be 102%; in series [3] (wastewater influent) it was 98.7%.

As to `Cc1cc([N-]S(=O)(=O)c2ccc(N)cc2)no1` [Sulfamethoxazol], the LC retention time in series [1] is 13 min. Besides, the absolute recovery in series [3] (wastewater effluent) amounted to 102%; in series [3] (wastewater influent) it was 113%.

For `COc1cc(Cc2c[nH+]c(N)nc2N)cc(OC)c1OC` [Trimethoprim], the LC retention time in series [1] worked out at 10.5 min. The absolute recovery is 107% in series [3] (wastewater effluent) and 106% in series [3] (wastewater influent).

In series [1], `[NH3+]C(CO)(CO)CO` [Trometamol] came in with an LC retention time of 2.85 min. The absolute recovery in series [3] (wastewater effluent) amounted to 105%; in series [3] (wastewater influent), 73.2%.

Take `COc1ccc(CC[NH+](C)CCCC(C#N)(c2ccc(OC)c(OC)c2)C(C)C)cc1OC` (stereo not given) [Verapamil]: the LC retention time in series [1] worked out at 15.1 min. For the same compound, the absolute recovery worked out at 98.2% in series [3] (wastewater effluent) and 97.4% in series [3] (wastewater influent).

These data come from the supplement of paper PMC6470124.
